# Where two headings read alike, the source gives them in different places.
# System: ARE gene family (AKR1B10, AKR1C1, AKR1C2, CYP1B1, FTH1P, FTL, G6PD, GCLM, NQO2, SLC7A11, TXNRD1, UGT1A1, UGT1A9, YWHAZ, CD36, CYP1A1, GCLC, HMOX1, NQO1, PSME2 …)
structure (smiles),measurement,setting,value
O=CC=O [Glyoxal],AHR NUMBER OF GENES grade,0.1%,"0 (if this expression is lower, the grade is 0)"
same,AKR1B10 NUMBER OF GENES grade,0.1%,"0 (if this expression is lower, the grade is 0)"
same,AKR1C1 NUMBER OF GENES grade,0.1%,"0 (if this expression is lower, the grade is 0)"
same,AKR1C2 NUMBER OF GENES grade,0.1%,"0 (if this expression is lower, the grade is 0)"
same,ARE >1.3 (number of genes),0.1%,0
same,CD36 NUMBER OF GENES grade,0.1%,"0 (if this expression is lower, the grade is 0)"
same,CYP1A1 NUMBER OF GENES grade,0.1%,"0 (if this expression is lower, the grade is 0)"
same,CYP1B1 NUMBER OF GENES grade,0.1%,"0 (if this expression is lower, the grade is 0)"
same,FTH1P NUMBER OF GENES grade,0.1%,"0 (if this expression is lower, the grade is 0)"
same,FTL NUMBER OF GENES grade,0.1%,"0 (if this expression is lower, the grade is 0)"
same,GCLC NUMBER OF GENES grade,0.1%,"0 (if this expression is lower, the grade is 0)"
same,GCLM NUMBER OF GENES grade,0.1%,"0 (if this expression is lower, the grade is 0)"
same,HMOX1 NUMBER OF GENES grade,0.1%,"0 (if this expression is lower, the grade is 0)"
same,NQO1 NUMBER OF GENES grade,0.1%,"0 (if this expression is lower, the grade is 0)"
same,NQO2 NUMBER OF GENES grade,0.1%,"0 (if this expression is lower, the grade is 0)"
same,S100A8 NUMBER OF GENES grade,0.1%,"0 (if this expression is lower, the grade is 0)"
same,SLC7A11 NUMBER OF GENES grade,0.1%,"0 (if this expression is lower, the grade is 0)"
same,TOTAL ARE (number of genes),0.1%,0
same,TXNRD1 NUMBER OF GENES grade,0.1%,"0 (if this expression is lower, the grade is 0)"
same,UGT1A1 NUMBER OF GENES grade,0.1%,"0 (if this expression is lower, the grade is 0)"
same,UGT1A9 NUMBER OF GENES grade,0.1%,"0 (if this expression is lower, the grade is 0)"
same,AHR expression,"0.1%, compared to the control",0.9
same,AKR1B10 expression,"0.1%, compared to the control",0.6
same,AKR1C1 expression,"0.1%, compared to the control",0.8
same,AKR1C2 expression,"0.1%, compared to the control",0.8
same,CD36 expression,"0.1%, compared to the control",1.1
same,CYP1A1 expression,"0.1%, compared to the control",0.6
same,CYP1B1 expression,"0.1%, compared to the control",0.6
same,FTH1P expression,"0.1%, compared to the control",0.9
same,FTL expression,"0.1%, compared to the control",1.0
same,GCLC expression,"0.1%, compared to the control",1.0
same,GCLM expression,"0.1%, compared to the control",0.9
same,HMOX1 expression,"0.1%, compared to the control",1.0
same,NQO1 expression,"0.1%, compared to the control",1.0
same,NQO2 expression,"0.1%, compared to the control",0.8
same,S100A8 expression,"0.1%, compared to the control",0.7
same,SLC7A11 expression,"0.1%, compared to the control",1.0
same,TXNRD1 expression,"0.1%, compared to the control",1.0
same,UGT1A1 expression,"0.1%, compared to the control",0.9
same,UGT1A9 expression,"0.1%, compared to the control",0.3
same,AHR NUMBER OF GENES grade,1%,"0 (if this expression is lower, the grade is 0)"
same,AKR1B10 NUMBER OF GENES grade,1%,"0 (if this expression is lower, the grade is 0)"
same,AKR1C1 NUMBER OF GENES grade,1%,"0 (if this expression is lower, the grade is 0)"
same,AKR1C2 NUMBER OF GENES grade,1%,"0 (if this expression is lower, the grade is 0)"
same,ARE >1.3 (number of genes),1%,1
same,CD36 expression compared to control,1%,1.1
same,CD36 grade (NUMBER OF GENES),1%,"0 (if this expression is lower, the grade is 0)"
same,CYP1A1 NUMBER OF GENES grade,1%,"0 (if this expression is lower, the grade is 0)"
same,CYP1B1 NUMBER OF GENES grade,1%,"0 (if this expression is lower, the grade is 0)"
same,FTH1P NUMBER OF GENES grade,1%,"0 (if this expression is lower, the grade is 0)"
same,FTL NUMBER OF GENES grade,1%,"0 (if this expression is lower, the grade is 0)"
same,GCLC NUMBER OF GENES grade,1%,"0 (if this expression is lower, the grade is 0)"
same,GCLM NUMBER OF GENES grade,1%,"0 (if this expression is lower, the grade is 0)"
same,HMOX1 NUMBER OF GENES grade,1%,"0 (if this expression is lower, the grade is 0)"
same,NQO1 NUMBER OF GENES grade,1%,"0 (if this expression is lower, the grade is 0)"
same,NQO2 NUMBER OF GENES grade,1%,"0 (if this expression is lower, the grade is 0)"
same,S100A8 expression compared to control,1%,0.9
same,S100A8 grade (NUMBER OF GENES),1%,"0 (if this expression is lower, the grade is 0)"
same,SLC7A11 NUMBER OF GENES grade,1%,"1 (If the expression is greater than 1.3 compared to the control, a grade of 11s given)"
same,TOTAL ARE (number of genes),1%,1
same,TXNRD1 NUMBER OF GENES grade,1%,"0 (if this expression is lower, the grade is 0)"
same,UGT1A1 NUMBER OF GENES grade,1%,"0 (if this expression is lower, the grade is 0)"
same,UGT1A9 NUMBER OF GENES grade,1%,"0 (if this expression is lower, the grade is 0)"
same,AHR expression,"1%, compared to the control",1.1
same,AKR1B10 expression,"1%, compared to the control",1.1
same,AKR1C1 expression,"1%, compared to the control",1.0
same,AKR1C2 expression,"1%, compared to the control",1.0
same,CYP1A1 expression,"1%, compared to the control",0.9
same,CYP1B1 expression,"1%, compared to the control",1.1
same,FTH1P expression,"1%, compared to the control",1.0
same,FTL expression,"1%, compared to the control",1.1
same,GCLC expression,"1%, compared to the control",1.1
same,GCLM expression,"1%, compared to the control",0.9
same,HMOX1 expression,"1%, compared to the control",0.9
same,NQO1 expression,"1%, compared to the control",1.1
same,NQO2 expression,"1%, compared to the control",1.0
same,SLC7A11 expression,"1%, compared to the control",1.4
same,TXNRD1 expression,"1%, compared to the control",0.9
same,UGT1A1 expression,"1%, compared to the control",1.2
same,UGT1A9 expression,"1%, compared to the control",0.6
